In US20160296529A1, “AMINOTRIAZOLOPYRIDINE FOR USE IN THE TREATMENT OF INFLAMMATION, AND PHARMACEUTICAL COMPOSITIONS THEREOF” (priority 2012, published 2016):
pIC50: −log10 of the molar value. Values joined by “and” are separate entries in the source; they are usually repeats but may differ in a detail not shown here. Equal values may be shown once. Read-outs that look alike come from different tables or passages of the source.

Target: T1, Recombinant human JAK1 catalytic domain (Homo sapiens, UniProt P23458)
T1 construct: amino acids 866-1154; catalog number PV4774; purchased Invitrogen PV4774
T1 sequence (P23458 866-1154): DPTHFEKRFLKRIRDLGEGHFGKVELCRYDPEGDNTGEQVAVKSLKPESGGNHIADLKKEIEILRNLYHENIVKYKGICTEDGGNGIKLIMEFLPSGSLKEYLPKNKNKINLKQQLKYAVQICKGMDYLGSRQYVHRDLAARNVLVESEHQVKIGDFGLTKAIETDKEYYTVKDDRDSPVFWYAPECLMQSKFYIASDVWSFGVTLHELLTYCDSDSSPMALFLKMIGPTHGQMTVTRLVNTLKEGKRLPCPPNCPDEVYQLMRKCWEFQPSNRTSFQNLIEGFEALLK
Experiment: JAK1 assay polyGT substrate
Format: biochemical
Experimental: Recombinant human JAK1 catalytic domain (amino acids 866-1154; catalog number PV4774) was purchased from Invitrogen. 25 ng of JAK1 was incubated with 6.25 μg polyGT substrate (Sigma catalog number P0275) in kinase reaction buffer (15 mM Hepes pH7.5, 0.01% Tween20, 10 mM MgCl2, 2 μM non-radioactive ATP, 0.25 μCi ^33P-gamma-ATP (Perkin Elmer, catalog number NEG602K001MC) final concentrations) with or without 5 μL containing test compound or vehicle (DMSO, 1% final concentration), in a total volume of 25 μL, in a polypropylene 96-well plate (Greiner, V-bottom). After 75 min at 30° C., reactions were stopped by adding 25 μL/well of 150 mM phosphoric acid. […] 40 μL/well of Microscint-20 was added, the top of the plates was sealed and readout was performed using the Topcount (Perkin Elmer). Kinase activity was calculated by subtracting counts per min (cpm) obtained in the presence of a positive control inhibitor (10 μM staurosporine) from cpm obtained in the presence of vehicle. The ability of a test compound to inhibit this activity was determined as:
Percentage inhibition−((cpm determined for sample with test compound present−cpm determined for sample with positive control inhibitor) divided by (cpm determined in the presence of vehicle−cpm determined for sample with positive control inhibitor))*100. […]

Nc1nc2cccc(-c3ccc(CN4CCS(=O)(=O)CC4)cc3)n2n1 [Formula I, 5-[4-(1,1-Dioxothiomorpholin-4-ylmethyl)-phenyl]-[1,2,4]triazolo[1,5-a]pyridin-2-ylamine]
pIC50 (average, read-out: IC50 (average)): 6.26 | pIC50 (individual determinations, read-out: IC50): 6.34 and 6.23 and 6.31 and 6.12 and 6.36
